Measured values reported in the NIST ThermoML archive (doi:10.1016/j.jct.2016.03.040).

Test: mn = molality of the nth substance listed, in mol/kg
Conditions: 100 kPa, Liquid; for speed of sound: Frequency=3 MHz, Sing-around technique in a fixed-path interferometer; for mass density: Vibrating tube method

O=C(N[C@H](CO)[C@H](O)c1ccc([N+](=O)[O-])cc1)C(Cl)Cl + O
Conditions	mass density, 288.15 K [kg/m3]	mass density, 298.15 K [kg/m3]	mass density, 308.15 K [kg/m3]	mass density, 318.15 K [kg/m3]	speed of sound, 288.15 K [m/s]	speed of sound, 298.15 K [m/s]	speed of sound, 308.15 K [m/s]	speed of sound, 318.15 K [m/s]
m1 = 0.0005	999.273	997.209	994.205	990.372	1466.9	1496	1519.6	1536.2
m1 = 0.001	999.429	997.363	994.356	990.522	1467	1496.1	1519.7	1536.4
m1 = 0.002	999.643	997.576	994.56	990.713	1467.1	1496.2	1519.9	1536.5
m1 = 0.004	999.922	997.847	994.831	990.992	1467.5	1496.7	1520.2	1536.8

NCC(=O)NCC(=O)O [glycylglycine] + O
Conditions	mass density, 288.15 K [kg/m3]	mass density, 298.15 K [kg/m3]	mass density, 308.15 K [kg/m3]	mass density, 318.15 K [kg/m3]	speed of sound, 288.15 K [m/s]	speed of sound, 298.15 K [m/s]	speed of sound, 308.15 K [m/s]	speed of sound, 318.15 K [m/s]
m1 = 0.01033	999.704	997.627	994.594	990.758	1467.7	1496.8	1520.3	1536.9
m1 = 0.02031	1000.23	998.133	995.135	991.281	1468.6	1497.7	1521.2	1537.7
m1 = 0.04035	1001.4	999.259	996.28	992.375	1470.5	1499.5	1522.8	1539.3
m1 = 0.06012	1002.5	1000.39	997.363	993.41	1472.4	1501.3	1524.4	1540.8
m1 = 0.0802	1003.7	1001.51	998.463	994.52	1474.3	1503.1	1526	1542.4
m1 = 0.1011	1004.84	1002.62	999.564	995.646	1476.3	1505	1527.7	1544
m1 = 0.1502	1007.57	1005.27	1002.18	998.186	1480.9	1509.4	1531.8	1547.9
m1 = 0.1995	1010.2	1007.94	1004.8	1000.72	1485.5	1513.8	1535.8	1551.8

NCC(=O)O [2-aminoacetic acid] + O
Conditions	mass density, 288.15 K [kg/m3]	mass density, 298.15 K [kg/m3]	mass density, 308.15 K [kg/m3]	mass density, 318.15 K [kg/m3]	speed of sound, 288.15 K [m/s]	speed of sound, 298.15 K [m/s]	speed of sound, 308.15 K [m/s]	speed of sound, 318.15 K [m/s]
m1 = 0.01095	999.494	997.428	994.433	990.57	1467.3	1496.5	1520	1536.6
m1 = 0.02116	999.815	–	994.686	990.869	1467.9	1497	1520.6	1537.1
m1 = 0.04014	1000.41	998.287	995.236	991.411	1469	1498	1521.5	1538
m1 = 0.06033	1001.05	–	995.832	991.989	1470.1	1499	1522.5	1539
m1 = 0.08023	1001.7	999.548	–	–	1471.2	1500.1	1523.5	1540
m1 = 0.1006	1002.36	1000.17	997.123	993.251	1472.4	1501.2	1524.5	1540.9
m1 = 0.15	1003.96	1001.73	–	994.665	1475.2	1503.8	1527	1543.3
m1 = 0.2003	1005.57	1003.28	1000.2	996.211	1478	1506.4	1529.5	1545.7
